Results reported in patent US11306095B2 (EAST CHINA UNIVERSITY OF SCIENCE AND TECHNOLOGY, priority 2015, dated 2022).
In brackets after ≈: the same amount, converted by molar mass.

Experiments:
[1] = Determination of solubility in water (PBS 20 mM, pH 6.8); type: physicochemical; conditions: PBS buffer, aqueous buffer, thermodynamic from solid; pH 6.8, 20 mM PBS; read-out: Solubility (pH 6.8, g/mL)
Outline: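 Compound suspension filtered (0.22 μm PVDF), diluted in 50% methanol/50% PBS, absorbance read by UV spectrophotometry. Solubility calculated from a standard curve of 0.01–0.05 mg/mL methanol-derived solutions (r > 0.998).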

[2] = system: H1975 cells (EGFR L858R/T790M); assay: Inhibitory activity on cell proliferation, H1975; type: cell-based; conditions: Homo sapiens, NCI-H1975; H1975, 72 hours; read-out: Inhibitory activity on proliferation of cells (IC50, μM) H1975
EGFR-L858R/T790M = target: T1, EGFR-L858R/T790M (Homo sapiens, UniProt P00533, L858R/T790M); assay: Kinase activity test (FRET), EGFR T790M/L858R; type: biochemical; conditions: EGFR T790M/L858R; read-out: Inhibitory activity of EGFR on kinase (IC50, nM) T790M/L858R
T1 construct: purchased Invitrogen PV4879
Outline: (§1)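 FRET assay with coumarin/fluorescein-labelled poly(Glu, Tyr)4:1 peptide and ATP, compounds at 5.1×10^−11 to 1.0×10^−6 mol/L final. Kinase reaction 1.5 h at room temperature, then 1 h development cleaving unphosphorylated peptide.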

[3] = system: A431 cells (EGFR wild type); assay: Inhibitory activity on cell proliferation, A431; type: cell-based; conditions: Homo sapiens, A-431; A431, 72 hours; read-out: Inhibitory activity on proliferation of cells (IC50, μM) A431
Wild type EGFR = target: T2, Wild type EGFR (Homo sapiens, UniProt P00533); assay: Kinase activity test (FRET), wild type EGFR; type: biochemical; conditions: wild type EGFR; read-out: Inhibitory activity of EGFR on kinase (IC50, nM) WT
T2 construct: purchased Invitrogen PV3872
Outline: as §1

T1 sequence (P00533 25-1210 T790M/L858R): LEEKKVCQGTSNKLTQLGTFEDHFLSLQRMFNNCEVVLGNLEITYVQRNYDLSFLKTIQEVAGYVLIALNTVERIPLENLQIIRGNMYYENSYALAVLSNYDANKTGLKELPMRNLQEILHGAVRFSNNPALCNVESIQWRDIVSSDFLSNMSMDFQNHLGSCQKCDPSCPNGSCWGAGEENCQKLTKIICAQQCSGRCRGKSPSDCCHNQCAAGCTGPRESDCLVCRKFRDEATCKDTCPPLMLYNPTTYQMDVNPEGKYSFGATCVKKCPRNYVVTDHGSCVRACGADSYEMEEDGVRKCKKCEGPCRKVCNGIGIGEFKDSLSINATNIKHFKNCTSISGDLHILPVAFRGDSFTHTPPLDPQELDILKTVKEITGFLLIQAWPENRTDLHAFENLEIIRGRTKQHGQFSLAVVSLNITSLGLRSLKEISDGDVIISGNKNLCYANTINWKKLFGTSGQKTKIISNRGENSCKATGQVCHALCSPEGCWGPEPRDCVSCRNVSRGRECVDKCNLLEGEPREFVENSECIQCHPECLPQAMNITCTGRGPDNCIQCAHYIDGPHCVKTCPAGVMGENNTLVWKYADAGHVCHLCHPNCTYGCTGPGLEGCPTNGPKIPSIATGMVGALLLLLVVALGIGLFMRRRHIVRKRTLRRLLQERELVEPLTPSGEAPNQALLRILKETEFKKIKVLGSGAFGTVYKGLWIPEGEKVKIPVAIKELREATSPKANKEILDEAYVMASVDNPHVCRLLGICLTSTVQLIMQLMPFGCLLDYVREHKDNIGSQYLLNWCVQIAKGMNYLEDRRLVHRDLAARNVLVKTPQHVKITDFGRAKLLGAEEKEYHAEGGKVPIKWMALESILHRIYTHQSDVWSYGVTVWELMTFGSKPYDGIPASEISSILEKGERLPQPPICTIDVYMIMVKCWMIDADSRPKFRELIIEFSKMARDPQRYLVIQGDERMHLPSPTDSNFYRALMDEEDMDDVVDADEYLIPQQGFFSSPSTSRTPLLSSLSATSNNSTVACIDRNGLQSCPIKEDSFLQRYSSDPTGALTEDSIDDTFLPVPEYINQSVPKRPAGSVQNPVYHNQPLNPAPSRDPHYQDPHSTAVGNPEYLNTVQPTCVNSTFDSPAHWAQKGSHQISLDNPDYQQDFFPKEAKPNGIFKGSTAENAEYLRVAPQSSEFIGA
T2 sequence (P00533 25-1210): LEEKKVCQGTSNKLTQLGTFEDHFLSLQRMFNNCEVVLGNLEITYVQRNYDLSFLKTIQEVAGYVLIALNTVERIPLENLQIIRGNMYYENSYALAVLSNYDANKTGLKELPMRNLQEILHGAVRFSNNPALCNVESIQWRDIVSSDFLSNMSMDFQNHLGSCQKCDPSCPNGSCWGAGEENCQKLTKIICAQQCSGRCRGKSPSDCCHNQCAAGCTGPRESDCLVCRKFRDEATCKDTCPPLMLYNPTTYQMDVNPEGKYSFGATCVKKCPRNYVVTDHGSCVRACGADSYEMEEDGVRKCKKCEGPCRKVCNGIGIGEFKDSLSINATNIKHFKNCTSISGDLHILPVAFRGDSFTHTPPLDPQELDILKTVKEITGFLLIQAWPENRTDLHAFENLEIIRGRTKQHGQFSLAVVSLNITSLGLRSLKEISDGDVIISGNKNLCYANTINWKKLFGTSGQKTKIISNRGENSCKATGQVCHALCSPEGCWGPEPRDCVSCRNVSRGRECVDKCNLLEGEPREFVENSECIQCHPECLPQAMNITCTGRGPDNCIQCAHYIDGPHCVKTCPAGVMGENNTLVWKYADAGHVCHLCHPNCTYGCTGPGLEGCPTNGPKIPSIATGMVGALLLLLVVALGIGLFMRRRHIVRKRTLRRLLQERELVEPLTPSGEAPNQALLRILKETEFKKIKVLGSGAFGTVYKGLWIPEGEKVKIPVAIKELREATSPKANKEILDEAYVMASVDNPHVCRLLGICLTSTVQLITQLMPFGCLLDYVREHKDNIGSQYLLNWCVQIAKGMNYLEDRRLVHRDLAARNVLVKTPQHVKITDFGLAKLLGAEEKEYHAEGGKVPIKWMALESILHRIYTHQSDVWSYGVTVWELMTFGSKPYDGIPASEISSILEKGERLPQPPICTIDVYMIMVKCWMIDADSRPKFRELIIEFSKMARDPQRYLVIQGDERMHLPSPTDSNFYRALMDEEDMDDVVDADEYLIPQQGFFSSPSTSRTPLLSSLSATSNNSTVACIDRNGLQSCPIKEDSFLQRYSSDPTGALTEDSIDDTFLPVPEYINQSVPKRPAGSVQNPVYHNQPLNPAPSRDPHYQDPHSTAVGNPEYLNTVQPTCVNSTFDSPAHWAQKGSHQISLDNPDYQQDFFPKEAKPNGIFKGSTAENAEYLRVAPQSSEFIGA

| SMILES | solubility [1] [µg/mL] | melting point [°C] | IC50 [2] [µM] | IC50 (EGFR-L858R/T790M) [nM] | IC50 [3] [µM] | IC50 (Wild type EGFR) [nM] |
| --- | --- | --- | --- | --- | --- | --- |
| C=CC(=O)Nc1cccc(-n2c(=O)c(C(C)C)nc3cnc(Nc4cc(C)c(N5CCN(C)CC5)cc4OC)nc32)c1 [Compound 39, N-(3-(6-isopropyl-2-((2-methoxy-5-methyl-4-(4-methyl-1-piperazinyl)phenyl)amino)-7-oxo-8(7H)pteridinyl)phenyl)acrylamide] | < 10 | 227.5 to 228.5 | 0.572 | 82.2 | 3.84 | 130 |
| C=CC(=O)N1CC[C@H](n2c(=O)c(-c3ccccc3)nc3cnc(Nc4ccc(N(C)CCN(C)C)c(C)c4)nc32)C1 [Compound 40] | > 10 | 256.1 to 256.4 | 1.05 | 73.1 | 1.38 | > 10000 |
| C=CC(=O)N1CC[C@H](n2c(=O)c(-c3ccccc3)nc3cnc(Nc4ccc(N(C)CCN(C)C)c(OC)c4)nc32)C1 [Compound 41] | > 10 | 260 to 260.2 | 1.19 | 38.6 | 1.26 | 5350 |
| C=CC(=O)N1CCC[C@H](Cn2c(=O)c(-c3ccccc3)nc3cnc(Nc4ccc(N5CCN(C)CC5)cc4OC)nc32)C1 [Compound 44] | < 10 | 208.3 to 209.3 | 1.56 | > 1000 | 1.81 | 343 |
| C=CC(=O)N1CCC[C@@H](n2c(=O)c(-c3ccccc3)nc3cnc(Nc4ccc(N5CCN(C)CC5)cc4OC)nc32)C1 [Compound 45, (R)-8-(1-acryloyl-3-piperidinyl)-2-((2-methoxy-4-(4-methyl-1-piperazinyl)phenyl)amino)-6-phenyl-7(8H)pteridinone] | < 10 | 134.9 to 135.1 | 1.78 | > 1000 | 4.28 | > 1000 |
| C=CC(=O)N1CCC[C@@H](n2c(=O)c(C3CCCCC3)nc3cnc(Nc4ccc(N5CCN(C)CC5)cc4OC)nc32)C1 [Compound 46, (R)-8-(1-acryloyl-3-piperidinyl)-6-cyclohexyl-2-((2-methoxy-4-(4-methyl-1-piperazinyl)phenyl)amino)-7(8H)pteridinone] | 43.2 (≈ 73.6 µM) | 94.2 to 94.7 | 2.16 | 13.3 | 2.39 | > 10000 |
| C=CC(=O)N1CC[C@H](n2c(=O)c(C3CCCCC3)nc3cnc(Nc4ccc(N5CCN(C)CC5)cc4OC)nc32)C1 [Compound 50, (S)-8-(1-acryloyl-3-pyrrolidinyl)-6-cyclohexyl-2-((2-methoxy-4-(4-methyl-1-piperazinyl)phenyl)amino)-7(8H)pteridinone] | 719 (≈ 1260 µM) | 117.9 to 118.2 | 1.24 | 86.9 | 1.11 | 2.7 |
| COc1cc(N2CCN(C)CC2)ccc1Nc1ncc2nc(-c3ccccc3)c(=O)n(-c3cccc(N)c3)c2n1 [Compound 51, 8-(3-aminophenyl)-2-((2-methoxy-4-(4-methyl-1-piperazinyl)phenyl)amino)-6-phenyl-7(8H)pteridinone] | < 10 | 235.5 to 235.7 | 5.34 | 251 | 2.06 | 16.6 |
| C=CC(=O)Nc1cccc(-n2c(=O)c(-c3ccc(OC)cc3)nc3cnc(Nc4ccc(N5CCN(C)CC5)cc4OC)nc32)c1 [Compound 54, N-(3-(2-((2-methoxy-4-(4-methyl-1-piperazinyl)phenyl)amino)-6-(4-methoxyphenyl)-7-oxo-8(7H)pteridinyl)phenyl)acrylamide] | < 10 | 296.5 to 297.3 | 1.06 | 3.5 | 4.1 | 1.5 |

Molecules with a lower IC50 [2], results first:

| solubility [1] [µg/mL] | melting point [°C] | IC50 [2] [µM] | IC50 (EGFR-L858R/T790M) [nM] | IC50 [3] [µM] | IC50 (Wild type EGFR) [nM] | SMILES |
| --- | --- | --- | --- | --- | --- | --- |
| < 10 | 291.2 to 291.4 | 0.262 | 6.1 | 1.3 | 6.6 | C=CC(=O)Nc1cccc(-n2c(=O)c(-c3cc(F)cc(F)c3)nc3cnc(Nc4ccc(N5CCN(C)CC5)cc4OC)nc32)c1 [Compound 55, N-(3-(6-(3,5-difluorophenyl)-2-((2-methoxy-4-(4-methyl-1-piperazinyl)phenyl)amino)-7-oxo-8(7H)pteridinyl)phenyl)acrylamide] |
| < 10 | > 300 | 0.228 | 1.7 | 1.2 | 1.6 | C=CC(=O)Nc1cccc(-n2c(=O)c(-c3ccc(F)c(F)c3)nc3cnc(Nc4ccc(N5CCN(C)CC5)cc4OC)nc32)c1 [Compound 56, N-(3-(6-(3,4-difluorophenyl)-2-((2-methoxy-4-(4-methyl-1-piperazinyl)phenyl)amino)-7-oxo-8(7H)pteridinyl)phenyl)acrylamide] |
| < 10 | > 300 | 0.225 | 1.8 | 1.37 | 2.8 | C=CC(=O)Nc1cccc(-n2c(=O)c(-c3cccc(OC)c3)nc3cnc(Nc4ccc(N5CCN(C)CC5)cc4OC)nc32)c1 [Compound 57, N-(3-(2-((2-methoxy-4-(4-methyl-1-piperazinyl)phenyl)amino)-6-(3-methoxyphenyl)-7-oxo-8(7H)pteridinyl)phenyl)acrylamide] |
| < 10 | 262.3 to 262.7 | 0.044 | 0.6 | 1.46 | 1.3 | C=CC(=O)Nc1cccc(-n2c(=O)c(-c3ccc(F)cc3)nc3cnc(Nc4ccc(N5CCN(C)CC5)cc4OC)nc32)c1 [Compound 52, N-(3-(6-(4-fluorophenyl)-2-((2-methoxy-4-(4-methyl-1-piperazinyl)phenyl)amino)-7-oxo-8(7H)pteridinyl)phenyl)acrylamide] |
| < 10 | > 300 | 0.031 | 20.8 | 0.64 | 362 | C=CC(=O)Nc1cccc(-n2c(=O)c(-c3ccccc3)nc3cnc(Nc4ccc(N5CCC(N6CCN(C)CC6)CC5)cc4OC)nc32)c1 [Compound 48, N-(3-(2-((2-methoxy-4-(4-(4-methyl-1-piperazinyl)piperidinyl)phenyl)amino)-7-oxo-6-phenyl-8(7H)pteridinyl)phenyl)acrylamide] |
| < 10 | 265 to 265.2 | 0.018 | 0.2 | 1.73 | 0.5 | C=CC(=O)Nc1cccc(-n2c(=O)c(-c3ccccc3)nc3cnc(Nc4ccc(N5CCN(C)CC5)c(C)c4)nc32)c1 [Compound 47, N-(3-(2-((3-methyl-4-(4-methyl-1-piperazinyl)phenyl)amino)-7-oxy-6-phenyl-8(7H)pteridinyl)phenyl)acrylamide] |
| < 10 | 264.7 to 265.5 | 0.003 | 47.5 | 0.328 | 528 | C=CC(=O)Nc1cccc(-n2c(=O)c(-c3ccccc3)nc3cnc(Nc4ccc(N5CCN(C)CC5)c(OC)c4)nc32)c1 [Compound 42, N-(3-(2-((3-methoxy-4-(4-methyl-1-piperazinyl)phenyl)amino)-7-oxo-6-phenyl-8(7H)pteridinyl)phenyl)acrylamide] |
